Laboratory results as given in patent US6737383B1, “Herbicidal oxadiazolidines” (priority 1999, dated 2004).

What was measured:
corn = assay: Test B pre/postemergence corn; format: in vivo, Zea mays
In short: (§1)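 Test chemicals in a non-phytotoxic solvent mixture with surfactant were sprayed preemergence onto planted seeds and postemergence onto plants 2 to 18 cm tall (1- to 4-leaf stage). After twelve to sixteen days in a greenhouse, injury was visually rated against untreated controls from 0 (no effect) to 10 (complete control).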

soybean = assay: Test B pre/postemergence soybean; format: in vivo, Glycine max
In short: as §1

smallflower flatsedge = assay: Test B flood test smallflower flatsedge; format: in vivo, Cyperus difformis
In short: (§2)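 Read-out is a visual response score from 0 (no effect) to 10 (complete control), assigned by comparison with untreated controls. Treatment was applied at the 2-leaf stage, and plants stayed in the greenhouse for twelve to sixteen days before scoring.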

morningglory = assay: Test B pre/postemergence morningglory; format: in vivo, Ipomoea hederacea
In short: as §1

giant foxtail = assay: Test B pre/postemergence giant foxtail; format: in vivo, Setaria faberii
In short: as §1

duck salad = assay: Test B flood test duck salad; format: in vivo, Heteranthera limosa
In short: as §2

purple nutsedge = assay: Test B pre/postemergence purple nutsedge; format: in vivo, Cyperus rotundus
In short: as §1

pigweed = assay: Test B pre/postemergence pigweed; format: in vivo, Amaranthus retroflexus
In short: as §1

bedstraw = assay: Test B pre/postemergence bedstraw; format: in vivo, Galium aparine
In short: as §1

wheat = assay: Test B pre/postemergence wheat; format: in vivo, Triticum aestivum
In short: as §1

blackgrass = assay: Test B pre/postemergence blackgrass; format: in vivo, Alopecurus myosuroides
In short: as §1

rice = assay: Test B flood test rice; format: in vivo, Oryza sativa
In short: as §2

surinam grass = assay: Test B pre/postemergence surinam grass; format: in vivo, Brachiaria decumbens
In short: as §1

wild oat = assay: Test B pre/postemergence wild oat; format: in vivo, Avena fatua
In short: as §1

velvetleaf = assay: Test B pre/postemergence velvetleaf; format: in vivo, Abutilon theophrasti
In short: as §1

crabgrass = assay: Test B pre/postemergence crabgrass; format: in vivo, Digitaria sanguinalis
In short: as §1

[1] = Preemergence, Rate 62 g/ha, scale of 0 to 10 where 0 is no effect and 10 is complete control
[2] = Preemergence, Rate 125 g/ha, 0 is no effect, 10 is complete control
[3] = Preemergence, Rate 250 g/ha, scale 0 to 10, 0 is no effect, 10 is complete control
[4] = Preemergence, Rate 500 g/ha, scale of 0 to 10 where 0 is no effect and 10 is complete control
[5] = Rate 62 g/ha, Postemergence, scale of 0 to 10 where 0 is no effect and 10 is complete control
[6] = Rate 125 g/ha, Postemergence, scale 0 to 10
[7] = Rate 500 g/ha, Postemergence, scale 0 to 10
[8] = Rate 62 g/ha, Postemergence section, flood test species, scale of 0 to 10 where 0 is no effect and 10 is complete control
[9] = Rate 125 g/ha, listed under Postemergence (flood test species), scale 0 to 10
[10] = Rate 250 g/ha, Postemergence section, flood test species
[11] = Rate 500 g/ha, listed under Postemergence (flood test species), scale 0 to 10

## C=C(C)CCn1c(=O)on(C(=O)N(c2ccc(F)cc2)C(C)C)c1=O [Compound 199]
corn; [1]
  Corn plant response rating: 0
corn; [2]
  Corn plant response rating (0 to 10 scale): 0
corn; [3]
  Corn plant response rating: 0
corn; [4]
  Plant response rating, Corn: 0
corn; [5]
  Corn plant response rating: 0
corn; [6]
  Corn plant response rating: 0
corn; Rate 250 g/ha, Postemergence
  Plant response rating (0 to 10; 0 is no effect, 10 is complete control), Corn: 0
corn; [7]
  Corn plant response rating: 0
soybean; [1]
  Soybean plant response rating: 0
soybean; [2]
  Soybean plant response rating (0 to 10 scale): 0
soybean; [3]
  Soybean plant response rating: 0
soybean; [4]
  Plant response rating, Soybean: 0
soybean; [5]
  Soybean plant response rating: 2
soybean; [6]
  Soybean plant response rating: 2
soybean; Rate 250 g/ha, Postemergence
  Plant response rating (0 to 10; 0 is no effect, 10 is complete control), Soybean: 7
soybean; [7]
  Soybean plant response rating: 7
Smallflower flatsedge; [8]
  S. Flatsedge plant response rating: 0
Smallflower flatsedge; [9]
  S. Flatsedge plant response rating: 0
Smallflower flatsedge; [10]
  Plant response rating (0 to 10; 0 is no effect, 10 is complete control), S. Flatsedge: 2
Smallflower flatsedge; [11]
  S. Flatsedge plant response rating: 7
morningglory; [1]
  Morningglory plant response rating: 0
morningglory; [2]
  Morningglory plant response rating (0 to 10 scale): 0
morningglory; [3]
  Morningglory plant response rating: 0
morningglory; [4]
  Plant response rating, Morningglory: 0
morningglory; [5]
  Morningglory plant response rating: 4
morningglory; [6]
  Morningglory plant response rating: 4
morningglory; Rate 250 g/ha, Postemergence
  Plant response rating (0 to 10; 0 is no effect, 10 is complete control), Morningglory: 4
morningglory; [7]
  Morningglory plant response rating: 8
Giant foxtail; [1]
  Giant foxtail plant response rating: 7
Giant foxtail; [2]
  Giant foxtail plant response rating (0 to 10 scale): 10
Giant foxtail; [3]
  Giant foxtail plant response rating: 10
Giant foxtail; [4]
  Plant response rating, Giant foxtail: 10
Giant foxtail; [5]
  Giant foxtail plant response rating: 0
Giant foxtail; [6]
  Giant foxtail plant response rating: 2
Giant foxtail; Rate 250 g/ha, Postemergence
  Plant response rating (0 to 10; 0 is no effect, 10 is complete control), Giant foxtail: 2
Giant foxtail; [7]
  Giant foxtail plant response rating: 7
Duck salad; [8]
  Ducksalad plant response rating: 0
Duck salad; [9]
  Ducksalad plant response rating: 0
Duck salad; [10]
  Plant response rating (0 to 10; 0 is no effect, 10 is complete control), Ducksalad: 0
Duck salad; [11]
  Ducksalad plant response rating: 2
Purple nutsedge; [1]
  Nutsedge plant response rating: 0
Purple nutsedge; [2]
  Nutsedge plant response rating (0 to 10 scale): 0
Purple nutsedge; [3]
  Nutsedge plant response rating: 0
Purple nutsedge; [4]
  Plant response rating, Nutsedge: 10
Purple nutsedge; [5]
  Nutsedge plant response rating: 0
Purple nutsedge; [6]
  Nutsedge plant response rating: 0
Purple nutsedge; Rate 250 g/ha, Postemergence
  Plant response rating (0 to 10; 0 is no effect, 10 is complete control), Nutsedge: 0
Purple nutsedge; [7]
  Nutsedge plant response rating: 0
pigweed; [1]
  Redroot pigweed plant response rating: 7
pigweed; [2]
  Redroot pigweed plant response rating (0 to 10 scale): 7
pigweed; [3]
  Redroot pigweed plant response rating: 10
pigweed; [4]
  Plant response rating, Redroot pigweed: 10
pigweed; [5]
  Redroot pigweed plant response rating: 0
pigweed; [6]
  Redroot pigweed plant response rating: 0
pigweed; Rate 250 g/ha, Postemergence
  Plant response rating (0 to 10; 0 is no effect, 10 is complete control), Redroot pigweed: 2
pigweed; [7]
  Redroot pigweed plant response rating: 6
bedstraw; [1]
  Bedstraw plant response rating: 0
bedstraw; [2]
  Bedstraw plant response rating (0 to 10 scale): 0
bedstraw; [3]
  Bedstraw plant response rating: 0
bedstraw; [4]
  Plant response rating, Bedstraw: 0
bedstraw; [5]
  Bedstraw plant response rating: 0
bedstraw; [6]
  Bedstraw plant response rating: 0
bedstraw; Rate 250 g/ha, Postemergence
  Plant response rating (0 to 10; 0 is no effect, 10 is complete control), Bedstraw: 0
bedstraw; [7]
  Bedstraw plant response rating: 2
wheat; [1]
  Wheat plant response rating: 0
wheat; [3]
  Wheat plant response rating: 0
wheat; [4]
  Plant response rating, Wheat: 0
wheat; [5]
  Wheat plant response rating: 0
wheat; [6]
  Wheat plant response rating: 2
wheat; Rate 250 g/ha, Postemergence
  Plant response rating (0 to 10; 0 is no effect, 10 is complete control), Wheat: 3
blackgrass; [1]
  Blackgrass plant response rating: 6
blackgrass; [2]
  Blackgrass plant response rating (0 to 10 scale): 10
blackgrass; [3]
  Blackgrass plant response rating: 10
blackgrass; [4]
  Plant response rating, Blackgrass: 10
blackgrass; [5]
  Blackgrass plant response rating: 0
blackgrass; [6]
  Blackgrass plant response rating: 4
blackgrass; Rate 250 g/ha, Postemergence
  Plant response rating (0 to 10; 0 is no effect, 10 is complete control), Blackgrass: 9
blackgrass; [7]
  Blackgrass plant response rating: 9
rice; [8]
  Rice plant response rating: 0
rice; [9]
  Rice plant response rating: 0
rice; [10]
  Plant response rating (0 to 10; 0 is no effect, 10 is complete control), Rice: 0
rice; [11]
  Rice plant response rating: 0
Surinam grass; [1]
  B. signalgrass plant response rating: 0
Surinam grass; [2]
  B. signalgrass plant response rating (0 to 10 scale): 1
Surinam grass; [3]
  B. signalgrass plant response rating: 6
Surinam grass; [4]
  Plant response rating, B. signalgrass: 9
Surinam grass; [5]
  B. signalgrass plant response rating: 0
Surinam grass; Rate 125 g/ha, Postemergence, scale 0 (no effect) to 10 (complete control)
  B. signalgrass plant response rating: 0
Surinam grass; Rate 250 g/ha, Postemergence, scale 0 to 10, 0 is no effect, 10 is complete control
  Plant response rating, B. signalgrass: 0
Wild oat; [1]
  Wild oats plant response rating: 0
Wild oat; [3]
  Wild oats plant response rating: 4
Wild oat; [4]
  Plant response rating, Wild oats: 7
Wild oat; [5]
  Wild oats plant response rating: 0
Wild oat; [6]
  Wild oats plant response rating: 0
Wild oat; Rate 250 g/ha, Postemergence
  Plant response rating (0 to 10; 0 is no effect, 10 is complete control), Wild oats: 0
velvetleaf; [1]
  Velvetleaf plant response rating: 0
velvetleaf; [3]
  Velvetleaf plant response rating: 0
velvetleaf; [4]
  Plant response rating, Velvetleaf: 0
velvetleaf; [5]
  Velvetleaf plant response rating: 0
velvetleaf; [6]
  Velvetleaf plant response rating: 0
velvetleaf; Rate 250 g/ha, Postemergence
  Plant response rating (0 to 10; 0 is no effect, 10 is complete control), Velvetleaf: 0
crabgrass; [1]
  Crabgrass plant response rating: 6
crabgrass; [2]
  Crabgrass plant response rating (0 to 10 scale): 6
crabgrass; [3]
  Crabgrass plant response rating: 10
crabgrass; [4]
  Plant response rating, Crabgrass: 10
crabgrass; [5]
  Crabgrass plant response rating: 0
crabgrass; [6]
  Crabgrass plant response rating: 2
crabgrass; Rate 250 g/ha, Postemergence
  Plant response rating (0 to 10; 0 is no effect, 10 is complete control), Crabgrass: 8
crabgrass; [7]
  Crabgrass plant response rating: 8
